Laboratory results published in patent US20060148896A1, “Use of an alkanoyl L-carnitine for the preparation of a medication to treat anhedonia” (Sigma-Tau Industrie Farmaceutiche Riunite S.p.A., priority 2001, published 2006).

Columns and labels:
Type in all cases: in vivo, rat
[1] = test system: rats exposed to chronic stress; experiment: Escape test in rats exposed to unavoidable/chronic stress; settings: for N0 of escapes After 8 days / N0 of escapes After stress + 3-week VAB training: ALCAR 10 mg/kg IP; for N0 of escapes After 8 days: BID or IMI 5 mg/kg BID plus chronic stress for 8 days; for N0 of escapes After stress + 3-week VAB training: BID or IMI 5 mg/kg BID, 8 days plus 3 weeks with stress on alternate days; for escape deficit induced by chronic stress: second experiment, end of 3-week training
Experimental: c) Stress: 10 rats were treated with physiological solution (1 ml/kg IP, BID) for 14 days. Then, the animals were exposed to the sequence of pre-test [with the pre-test, the animals were exposed to both unavoidable stress (electric shocks) of minimum intensity and duration, capable to induce a reliable modification of behaviour. Brain. Res. Protocols 7(1):11-20; 2001]; escape test [(also defined as “test”) carried out 24 hours after the pre-test, to assess the induced behaviour modification (Brain. Res. Protocols 7(1):11-20; 2001)]; Y- maze training and exposure to the chronic stress procedure on alternate days (maze one day, and stress the next day) for three weeks (Brain. Res. Protocols 7(1): 11-20; 2001), while continuing treatment with physiological solution;
d) acetyl L-carnitine+Stress: 10 rats were treated with acetyl L-carnitine (10 mg/kg, IP, BID) for 14 days. Then, animals were exposed to the sequence of: -pre-test; -test; -Y-maze training and simultaneously exposed to the chronic stress procedure on alternate days (maze one day, and stress the next day) for three weeks, while continuing treatment with acetyl L-camitine.
At the end of the VAB training, all the animals exposed to stress underwent the escape test (Brain. Res. Protocols 7(1):11-20; 2001).
(§1) f) Stress+VAB: the animals were exposed to the pre-test. Twenty-four hours later they were subjected to the escape test, and then exposed to the chronic stress procedure for 7 days. On day 9, they started their training in the Y-maze while exposed to stress on alternate days;
(§2) g) acetyl L-carnitine+Stress+VAB: the animals were exposed to the pre-test. Twenty-four hours later they underwent the escape test. Then, they were exposed to the protocol of chronic stress for 7 days, while receiving acetyl L-carnitine 10 mg/kg IP, BID for 8 days. On day 9, the rats started their VAB training in the Y-maze and exposure to stress on alternate days, while continuing treatment with the acetyl L-carnitine for 3 weeks;
(§3) h) IMI+Stress+VAB: the animals were exposed to the pre-test. Twenty-four hours later, they underwent the escape test, and then they were exposed to the chronic stress protocol for 7 days while receiving imipramine 5 mg/kg IP, BID for 8 days. On day 9, the rats started their training in the Y-maze and exposure to stress on alternate days, while continuing with IMI for 3 weeks.
At the end of the training period, all the animals underwent the escape test.

[2] = test system: rats exposed to chronic stress; experiment: Acquisition of vanilla sugar-sustained appetitive behaviour (VAB) in the Y-maze during chronic stress; settings: for No. of correct choices: rats, ALCAR 10 mg/kg IP, BID or IMI 5 mg/kg BID started after pre-test, chronic stress 8 days, then 3-week Y-maze training with stress on alternate days, mean ± standard error; for protection from negative effect of chronic stress on VAB acquisition: second experiment: chronic administration during exposure to stress and training in the Y-maze
Excerpt: The anhedonia model is based on the observation that the fact of being exposed to a repeated unavoidable stress prevents the development of an appetitive behaviour induced and maintained by a highly palatable food (vanilla sugar) in rats fed ad libitum (Behav. Pharmacol. 8:619-628, 1997). […]
The Y-maze was made up of three wings. The vanilla sugar for the acquisition of the appetitive behaviour was in one of the two diverging wings (VAB training, 3 weeks).
e) VAB: the physiological solution was administered to the animals (1 ml/kg IP, BID) for 8 days, and then the rats were trained in the Y-maze for VAB acquisition while continuing the treatment with physiological solution for 3 weeks;
as §1, §2, §3

[3] = test system: dopamine in the nucleus accumbens (Nacs); experiment: Microdialysis of extraneuronal dopamine in the nucleus accumbens after VAB training (Example 1); settings: rats trained in the Y-maze during chronic stress exposure and treated; for dopamine in the Nacs after the acute administration of cocaine vs control animals (FIGS. 3 and 4): cocaine 5 mg/kg IP
Experimental: Two days later, animals were implanted with microdialysis probes into the nucleus accumbens (Nacs) (Brain. Res. Protocols 5(1):16-24: 2000) and underwent dialysis on the next day.
Once the dopamine basal level had been reached, the rats were administered a single dose of cocaine 5 mg/kg IP in 0.1 ml volume of water, and dialysed within the next 60 minutes.

[4] = test system: dopamine in the nucleus accumbens (Nacs); experiment: Microdialysis of dopamine in the Nacs after 7-day stress: basal, vanilla sugar meals, cocaine (Example 2); settings: for protection from the neurochemical effects resulting from a repeated exposure to stress: Example 2, IMI 5 mg/kg IP BID or FLX 5 mg/kg IP/die for 8 days with 7-day stress; for Dopamine (max percentage increase) Meal 1 / Dopamine (max percentage increase) Meal 2: mean ± standard error of 10
Experimental: Sixty rats were divided in 6 groups of 10 animals each, as follows:
a) Control (Crt): the animals were administered physiological solution 1 ml/kg IP, BID for 8 days;
b) acetyl L-carnitine: the animals were administered acetyl L-carnitine 10 mg/kg IP, BID for 8 days;
c) Stress: the animals were exposed to the pre-test, they were tested for escape 24 hours later, and then they were exposed to the chronic stress protocol for 7 days, while receiving physiological solution (for 8 days);
d) acetyl L-carnitine+Stress: the animals were exposed to the pre-test, they were tested for escape 24 hours later, and then they were exposed to the chronic stress protocol for 7 days, while receiving acetyl L-carnitine 10 mg/kg IP, BID, for 8 days;
e) IMI+Stress: the animals were exposed to the pre-test, they were tested for escape 24 hours later, and then they were exposed to the chronic stress protocol for 7 days, while receiving IMI 5 mg/kg IP, BID for 8 days;
f) FLX+Stress: the animals were exposed to the pre-test, they were tested for escape 24 hours later, and then they were exposed to the chronic stress protocol for 7 days, while receiving FLX 5 mg/kg IP/die for 8 days.
On day 9, all the animals were implanted with dialysis probes in the Nacs; on day 10, the animals were dialysed.
The basal levels of dopamine were determined over 60 minutes.
At this point, the rats were offered 5 vanilla sugar pellets (Meal 1); 4 samples of dialysis fluid were taken over the next 60 minutes.
The rats were offered vanilla sugar one more time (Meal 2), and samples of dialysis fluid were taken over 60 minutes.
Finally, the rats were injected with cocaine 5 mg/kg IP, 0.1 ml in water and samples of dialysis fluid were taken over 60 minutes.

[5] = rats exposed to chronic stress for 7 days during ALCAR 10 mg/kg IP BID, IMI 5 mg/kg IP BID or FLX 5 mg/kg IP/die, 8 days, Nacs

Row | SMILES | N0 of escapes After 8 days ([1]; rats, mean ± standard error) | N0 of escapes After stress + 3-week VAB training ([1]; rats, mean ± standard error) | escape deficit induced by chronic stress [1] | No. of correct choices [2] | protection from negative effect of chronic stress on VAB acquisition [2] | basal levels of extraneuronal dopamine in the Nacs vs control animals (FIGS. 3 and 4) [3] | dopamine in the Nacs after the acute administration of cocaine vs control animals (FIGS. 3 and 4) [3] | protection from the neurochemical effects resulting from a repeated exposure to stress [4] | Dopamine (max percentage increase) Meal 1 [4, 5] [%] | Dopamine (max percentage increase) Meal 2 [4, 5] [%] | No. of escapes 24 hours after the pre-test ([1]; rats, acetyl L-carnitine 10 mg/kg IP, BID for 14 days before pre-test, mean ± standard error) | No. of escapes After training for VAB and exposure to stress ([1]; rats, acetyl L-carnitine 10 mg/kg IP, BID, 14-day pre-treatment continued during 3-week VAB training and chronic stress, mean ± standard error) | negative effect of chronic stress on VAB acquisition (FIGS. 1 and 2) ([2]; first experiment: 14-day pre-treatment 10 mg/kg IP BID, continued throughout training with chronic stress) | dopamine output levels in the Nacs vs control group [3] | basal levels of dopamine in the Nacs vs control rats (FIGS. 5 and 6) ([4]; Example 2, 8-day treatment) | increase of dopamine in the Nacs after the acute administration of cocaine vs control rats ([4]; Example 2, 8-day treatment, cocaine 5 mg/kg IP) | increase in the output of dopamine after two consecutive vanilla sugar meals ([4]; rats exposed to stress and treated with acetyl L-carnitine, Nacs) | Dopamine (max percentage increase) Meal 1 ([4]; rats not exposed to stress, acetyl L-carnitine 10 mg/kg IP, BID 8 days, Nacs dialysate after first vanilla sugar meal) [%] | Dopamine (max percentage increase) Meal 2 ([4]; rats not exposed to stress, acetyl L-carnitine 10 mg/kg IP, BID 8 days, Nacs dialysate after second vanilla sugar meal) [%]
1 | CN(C)CCCN1c2ccccc2CCc2ccccc21 [IMI, imipramine, reference compound] | 2.5 ± 1.1 | 24.8 ± 1.0 | completely reversed | 2.9 ± 1.2 | protected the rats from the negative effect of chronic stress on VAB acquisition | significantly lower | significantly lower | Neither the treatment with IMI nor the treatment with FLX were capable to protect | 3.3 ± 2.3 | 4.1 ± 3.5 |  |  |  |  |  |  |  |  | 
2 | CNCCC(Oc1ccc(C(F)(F)F)cc1)c1ccccc1 (stereo not shown) [FLX, fluoxetine, reference compound] |  |  |  |  |  |  |  | Neither the treatment with IMI nor the treatment with FLX were capable to protect | 4.6 ± 4.2 | 3.6 ± 4.0 |  |  |  |  |  |  |  |  | 
3 | CC(=O)O[C@H](CC(=O)[O-])C[N+](C)(C)C [ALCAR, acetyl L-carnitine] | 1.0 ± 0.5 | 22.4 ± 2.8 | completely reversed | 7.6 ± 0.5 | fully protected the rats from negative effect of chronic stress on VAB acquisition | significantly higher | significantly higher |  | 286.4 ± 16.4 | 276.7 ± 18.6 | 25.8 ± 2.5 | 26.4 ± 2.9 | prevented such negative effect from occurring | superimposable to those observed in the control group | significantly higher | significantly higher | approx 300% | 35.7 ± 1.8 | 6.8 ± 5.1
